# According to patent US20070154567A1, “Use of mercury to treat cancer” (priority 2006, published 2007):
# Several values for one entry are separate records, joined by “and”; a condition that tells them apart may be missing. Equal entries are not always repeated.
# Test system: metastatic hepatocellular carcinoma
# Assay: Oral inorganic mercury (II) treatment of a pet Husky after tumor removal: blood data and clinical follow-up
# Assay type: in vivo, dog
# Design: Corrected Calcium / MCV / MCH / MCHC / Neutrophils, absolute / Bands / Lymphocytes, absolute / Monocytes, absolute / Eosinophils, absolute / Basophils, absolute: unit not given here
# Procedure: A 10 yrs old female Husky, 54 lbs was diagnosed with metastatic hepatocellular carcinoma. The tumor was surgically removed prior to treatment. The prognosis after the surgery was poor with 1-2 months of life expectancy.
# The 90-day inorganic mercury (II) treatment consisted of two 30-day treatment courses and one 30-day interval period. The formulation contained 1 mM mercury acetate in 20 mM sodium acetate buffer, pH 4.5, with 100 mM sucrose and 150 mM sodium chloride additives. The formulation was introduced orally to the pet three times a day 1 hour before food at 0.5 micromole Hg^2+/kg/day. In the beginning of treatment the dog had high levels of alkaline phosphatase (ALP) and alanine transferase (ALT), two liver enzymes known to be associated with liver tumor progression (de Oliveira e Silva et al., Arq Gastroenterol. 1990, 27(2):83-94). […] On Day 3 ALP and ALT were 1950 U/L and 119 U/L, respectively. On day 30 ALP dropped to 495 U/L, whereas ALT was decreased to 27 U/L. Decreases in ALP and ALT levels were correlated well with the improvement of dog's general condition during the first treatment course. During the second treatment course, according to owner's and veterinarian's notes, the dog continued to show improvement and at the end of the treatment period it acted as a healthy dog. Unfortunately, the owner chose not to take blood tests after day 30.
structure (smiles),measurement,setting,value
"CC(=O)[O-].CC(=O)[O-].[Hg+2] [inorganic mercury (II), mercury acetate]",health / cancer status of the dog,10 months after treatment,remains in good health and is apparently cancer-free
same,ALT (SGPT),Day 3,119 U/L and 119 (H) U/L
same,AST (SGOT),Day 3,30 U/L
same,Albumin,Day 3,3.1 g/dL
same,Albumin/Globulin Ratio,Day 3,1.1
same,Alkaline Phosphatase (ALP),Day 3,1950 U/L and 1950 (H) U/L
same,Amylase,Day 3,369 U/L
same,BUN/Creatinine Ratio,Day 3,17
same,Bands,Day 3,0
same,"Basophils, absolute",Day 3,0
same,CPK,Day 3,161 U/L
same,Calcium,Day 3,9.4 mg/dL
same,Chloride,Day 3,114 mE/L
same,Cholesterol,Day 3,250 mg/dL
same,Corrected Calcium,Day 3,9.8
same,Creatinine,Day 3,1.0 mg/dL
same,"Eosinophils, (%)",Day 3,7%
same,"Eosinophils, absolute",Day 3,812
same,Globulin,Day 3,2.8 g/dL
same,Glucose,Day 3,94 mg/dL
same,Hematocrit,Day 3,43.1%
same,Hemoglobin,Day 3,14.7 g/dL
same,"Lymphocytes, (%)",Day 3,18%
same,"Lymphocytes, absolute",Day 3,2088
same,MCH,Day 3,22.3
same,MCHC,Day 3,34.1
same,MCV,Day 3,65
same,"Monocytes, (%)",Day 3,4%
same,"Monocytes, absolute",Day 3,464
same,"Neutrophils, (%)",Day 3,71%
same,"Neutrophils, absolute",Day 3,8236
same,Phosphorus,Day 3,3.8 mg/dL
same,Platelet count,Day 3,394 10^3/microl
same,Potassium,Day 3,4.5 mE/L
same,RBC,Day 3,6.59 10^6/microl
same,Sodium,Day 3,149 mE/L
same,Total Billirubin,Day 3,0.1 mg/dL
same,Total Protein,Day 3,5.9 g/dL
same,Urea Nitrogen,Day 3,17 mg/dL
same,WBC,Day 3,11.6 10^3/microl
same,ALT (SGPT),Day 9,51 U/L
same,AST (SGOT),Day 9,18 U/L
same,Albumin,Day 9,3.2 g/dL
same,Albumin/Globulin Ratio,Day 9,1.1
same,Alkaline Phosphatase (ALP),Day 9,1368 (H) U/L
same,Amylase,Day 9,348 U/L
same,BUN/Creatinine Ratio,Day 9,8
same,Bands,Day 9,0
same,"Basophils, absolute",Day 9,0
same,CPK,Day 9,119 U/L
same,Calcium,Day 9,9.8 mg/dL
same,Chloride,Day 9,115 mE/L
same,Cholesterol,Day 9,237 mg/dL
same,Corrected Calcium,Day 9,10.1
same,Creatinine,Day 9,1.0 mg/dL
same,"Eosinophils, (%)",Day 9,3%
same,"Eosinophils, absolute",Day 9,405
same,Globulin,Day 9,3.0 g/dL
same,Glucose,Day 9,93 mg/dL
same,Hematocrit,Day 9,53.1%
same,Hemoglobin,Day 9,17.4 g/dL
same,"Lymphocytes, (%)",Day 9,15%
same,"Lymphocytes, absolute",Day 9,2025
same,MCH,Day 9,21.8
same,MCHC,Day 9,32.8
same,MCV,Day 9,67
same,"Monocytes, (%)",Day 9,3%
same,"Monocytes, absolute",Day 9,405
same,"Neutrophils, (%)",Day 9,79%
same,"Neutrophils, absolute",Day 9,10665
same,Phosphorus,Day 9,3.8 mg/dL
same,Platelet count,Day 9,406 (H) 10^3/microl
same,Potassium,Day 9,4.7 mE/L
same,RBC,Day 9,7.97 10^6/microl
same,Sodium,Day 9,152 mE/L
same,Total Billirubin,Day 9,0.1 mg/dL
same,Total Protein,Day 9,6.2 g/dL
same,Urea Nitrogen,Day 9,8 mg/dL
same,WBC,Day 9,13.5 10^3/microl
same,ALT (SGPT),Day 30,27 U/L
same,AST (SGOT),Day 30,26 U/L
same,Albumin,Day 30,3.4 g/dL
same,Albumin/Globulin Ratio,Day 30,1.1
same,Alkaline Phosphatase (ALP),Day 30,495 U/L and 495 (H) U/L
same,Amylase,Day 30,349 U/L
same,BUN/Creatinine Ratio,Day 30,16
same,Bands,Day 30,0
same,"Basophils, absolute",Day 30,0
same,CPK,Day 30,488 U/L
same,Calcium,Day 30,10.3 mg/dL
same,Chloride,Day 30,117 mE/L
same,Cholesterol,Day 30,248 mg/dL
same,Corrected Calcium,Day 30,10.4
same,Creatinine,Day 30,0.9 mg/dL
same,"Eosinophils, (%)",Day 30,6%
same,"Eosinophils, absolute",Day 30,504
same,Globulin,Day 30,3.0 g/dL
same,Glucose,Day 30,113 mg/dL
same,Hematocrit,Day 30,50.3%
same,Hemoglobin,Day 30,15.8 g/dL
same,"Lymphocytes, (%)",Day 30,17%
same,"Lymphocytes, absolute",Day 30,1428
same,MCH,Day 30,20.9
same,MCHC,Day 30,31.4
same,MCV,Day 30,66
same,"Monocytes, (%)",Day 30,4%
same,"Monocytes, absolute",Day 30,336
same,"Neutrophils, (%)",Day 30,73%
same,"Neutrophils, absolute",Day 30,6132
same,Phosphorus,Day 30,3.3 mg/dL
same,Platelet count,Day 30,385 10^3/microl
same,Potassium,Day 30,4.1 mE/L
same,RBC,Day 30,7.57 10^6/microl
same,Sodium,Day 30,152 mE/L
same,Total Billirubin,Day 30,0.1 mg/dL
same,Total Protein,Day 30,6.4 g/dL
same,Urea Nitrogen,Day 30,14 mg/dL
same,WBC,Day 30,8.4 10^3/microl
same,levels of ALP and ALT,during the first treatment course,dramatically decreased
